Data taken from ChEMBL document CHEMBL4184305, “Inhibition of histone lysine methyltransferases G9a and GLP by ejection of structural Zn(II)” (Bioorg Med Chem Lett, 2018).
Active and inactive are the calls of the source. The calls are words filed in the database; no cut-off is given here.

What was measured:
[1] = molecular target: T1, Histone-lysine N-methyltransferase EHMT2 (Homo sapiens) (UniProt Q96KQ7); experiment: Inhibition of wild type recombinant human histone lysine methyltransferase G9a (913 to 1193 residues) expressed in Escherichia coli Rosetta BL21 DE3 PlysS at 10 uM using ARTKQTARKSTGGKA as substrate preincubated for 5 mins followed by substrate/SAM addition measured after 60 mins by MALDI-TOF MS analysis
T1 sequence (whole entry): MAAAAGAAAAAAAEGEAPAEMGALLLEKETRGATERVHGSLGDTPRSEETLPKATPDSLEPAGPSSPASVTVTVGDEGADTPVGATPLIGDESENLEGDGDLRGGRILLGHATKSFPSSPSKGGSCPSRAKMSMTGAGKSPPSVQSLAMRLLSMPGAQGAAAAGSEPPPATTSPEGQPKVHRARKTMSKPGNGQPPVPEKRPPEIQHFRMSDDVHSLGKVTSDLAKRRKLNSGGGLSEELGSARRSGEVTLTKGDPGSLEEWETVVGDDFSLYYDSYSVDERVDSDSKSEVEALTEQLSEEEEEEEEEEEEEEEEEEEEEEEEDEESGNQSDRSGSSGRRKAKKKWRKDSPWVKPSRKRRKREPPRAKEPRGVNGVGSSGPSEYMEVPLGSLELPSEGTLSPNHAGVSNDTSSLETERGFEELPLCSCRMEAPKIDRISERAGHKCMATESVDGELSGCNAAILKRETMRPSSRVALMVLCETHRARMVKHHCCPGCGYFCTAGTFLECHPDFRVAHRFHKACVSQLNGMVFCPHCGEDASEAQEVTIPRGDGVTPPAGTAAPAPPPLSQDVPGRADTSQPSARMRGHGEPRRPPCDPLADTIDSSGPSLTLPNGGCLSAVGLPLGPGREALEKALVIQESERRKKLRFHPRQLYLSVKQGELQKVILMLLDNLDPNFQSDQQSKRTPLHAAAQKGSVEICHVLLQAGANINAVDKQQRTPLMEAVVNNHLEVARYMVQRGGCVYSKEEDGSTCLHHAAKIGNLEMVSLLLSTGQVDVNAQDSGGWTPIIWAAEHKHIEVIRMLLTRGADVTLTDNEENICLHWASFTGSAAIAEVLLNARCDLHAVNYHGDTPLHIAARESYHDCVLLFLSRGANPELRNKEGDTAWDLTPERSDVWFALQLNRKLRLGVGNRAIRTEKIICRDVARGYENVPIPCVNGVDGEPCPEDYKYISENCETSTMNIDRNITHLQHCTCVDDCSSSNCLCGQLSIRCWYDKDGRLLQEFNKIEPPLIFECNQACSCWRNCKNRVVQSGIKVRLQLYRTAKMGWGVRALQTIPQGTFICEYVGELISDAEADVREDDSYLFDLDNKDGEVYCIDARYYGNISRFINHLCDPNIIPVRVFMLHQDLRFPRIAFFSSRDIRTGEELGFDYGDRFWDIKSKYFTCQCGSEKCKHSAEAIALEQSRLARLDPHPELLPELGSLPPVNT

[2] = molecular target: T2, Histone-lysine N-methyltransferase EHMT1 (Homo sapiens) (UniProt Q9H9B1); experiment: Induction of wild type recombinant human histone lysine methyltransferase GLP (951 to 1235 residues) protein unfolding at 100 uM by circular dichroism analysis
T2 sequence (whole entry): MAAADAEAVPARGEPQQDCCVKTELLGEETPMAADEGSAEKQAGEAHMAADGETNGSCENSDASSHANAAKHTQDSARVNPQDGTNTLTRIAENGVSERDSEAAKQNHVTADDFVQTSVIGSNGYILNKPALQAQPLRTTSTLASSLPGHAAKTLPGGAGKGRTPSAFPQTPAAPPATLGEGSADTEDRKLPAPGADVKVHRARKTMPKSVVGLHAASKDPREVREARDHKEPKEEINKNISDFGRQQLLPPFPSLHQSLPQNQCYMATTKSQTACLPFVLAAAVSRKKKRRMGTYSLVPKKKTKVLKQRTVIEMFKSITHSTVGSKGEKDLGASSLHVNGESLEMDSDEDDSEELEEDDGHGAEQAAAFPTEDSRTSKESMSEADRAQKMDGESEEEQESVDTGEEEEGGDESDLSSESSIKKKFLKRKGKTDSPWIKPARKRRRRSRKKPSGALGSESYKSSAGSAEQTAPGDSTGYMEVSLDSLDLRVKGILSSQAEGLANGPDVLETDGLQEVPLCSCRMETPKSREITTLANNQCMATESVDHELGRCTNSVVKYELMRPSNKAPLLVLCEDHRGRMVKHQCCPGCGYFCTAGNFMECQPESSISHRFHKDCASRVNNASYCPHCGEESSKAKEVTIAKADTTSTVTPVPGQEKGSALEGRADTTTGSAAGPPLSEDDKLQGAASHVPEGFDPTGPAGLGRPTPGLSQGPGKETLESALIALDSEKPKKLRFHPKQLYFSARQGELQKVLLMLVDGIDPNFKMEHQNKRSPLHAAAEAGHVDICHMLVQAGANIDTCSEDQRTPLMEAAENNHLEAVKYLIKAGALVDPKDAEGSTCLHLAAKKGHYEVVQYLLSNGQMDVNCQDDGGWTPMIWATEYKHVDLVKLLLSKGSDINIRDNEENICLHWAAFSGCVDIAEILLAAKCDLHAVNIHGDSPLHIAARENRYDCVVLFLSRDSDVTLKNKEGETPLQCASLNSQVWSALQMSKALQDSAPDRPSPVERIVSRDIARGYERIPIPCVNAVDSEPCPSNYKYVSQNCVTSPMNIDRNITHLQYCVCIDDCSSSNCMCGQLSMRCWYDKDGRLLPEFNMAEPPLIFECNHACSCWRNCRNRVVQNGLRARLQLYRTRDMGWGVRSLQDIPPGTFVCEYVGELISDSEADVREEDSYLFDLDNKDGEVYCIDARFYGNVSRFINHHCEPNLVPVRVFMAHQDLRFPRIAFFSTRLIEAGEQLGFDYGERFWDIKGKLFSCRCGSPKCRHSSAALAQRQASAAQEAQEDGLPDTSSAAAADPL

[3] = molecular target: T1, Histone-lysine N-methyltransferase EHMT2 (Homo sapiens); experiment: Inhibition of wild type recombinant human histone lysine methyltransferase G9a (913 to 1193 residues) expressed in Escherichia coli Rosetta BL21 DE3 PlysS assessed as zinc ions ejection from Cys4-Zn finger at 100 uM by FluoZin-3 based fluorescence assay
[4] = molecular target: T1, Histone-lysine N-methyltransferase EHMT2 (Homo sapiens); experiment: Inhibition of wild type recombinant human histone lysine methyltransferase G9a (913 to 1193 residues) expressed in Escherichia coli Rosetta BL21 DE3 PlysS assessed as zinc ions ejection from 3 types of Cys9-type Zn fingers at >50 uM after 1 hr by circular dichroism analysis
[5] = molecular target: T1, Histone-lysine N-methyltransferase EHMT2 (Homo sapiens); experiment: Inhibition of wild type recombinant human histone lysine methyltransferase G9a (913 to 1193 residues) expressed in Escherichia coli Rosetta BL21 DE3 PlysS assessed as zinc ions ejection from 3 types of Cys9-type Zn fingers at >25 uM after 1 hr by circular dichroism analysis
[6] = molecular target: T3, Histone-lysine N-methyltransferase EHMT2 (Homo sapiens, UniProt Q96KQ7); experiment: Inhibition of wild type recombinant human histone lysine methyltransferase G9a (913 to 1193 residues) expressed in Escherichia coli Rosetta BL21 DE3 PlysS using ARTKQTARKSTGGKA as substrate preincubated for 5 mins followed by substrate/SAM addition measured after 60 mins by MALDI-TOF MS analysis
T3 sequence (Q96KQ7 whole entry): T1 sequence (whole entry)

| Compound | inhibition [1] | Activity [2] | inhibition [3] | inhibition [4] | inhibition [5] | IC50 [6] |
| --- | --- | --- | --- | --- | --- | --- |
| CCN(CC)C(=S)SSC(=S)N(CC)CC | inactive | Active | Active | Active |  |  |
| O=c1c2ccccc2[se]n1-c1ccccc1 [EBSELEN] | inactive | Active | Active |  | Active | 400 nM |
